Reference: the supplement of paper PMC10883282

How the values were obtained:
Assay in all cases: relative viability vs DMSO control (72 h) (fraction); higher = more viable cells
[1] = system: SW872
Procedure, shortened: (§1)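 Serially diluted compound, 2.5 µl from source plates spanning 10 mM to 0.0002 mM, was added 24 h after sarcoma cell lines were seeded in 384-well plates at densities targeting 80–90% confluence. Plates then sat 72 h at 37 °C, 5% CO2, with 0.1% DMSO vehicle and a 5 µM positive control. Relative viability came from ATPLite as percent growth, averaged over up to triplicate wells, and was rescaled with 1 as full and 0 as none.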

[2] = system: VA-ES-BJ
Procedure, shortened: as §1

[3] = system: G401
Procedure, shortened: as §1

[4] = system: KHOS-NP
Procedure, shortened: as §1

[5] = system: SK-LMS-1
Procedure, shortened: as §1

[6] = system: SW684
Procedure, shortened: as §1

[7] = system: SW982
Procedure, shortened: as §1

[8] = system: RD-ES
Procedure, shortened: as §1

[9] = system: A204
Procedure, shortened: as §1

[10] = system: SK-ES-1
Procedure, shortened: as §1

[11] = system: HS729
Procedure, shortened: as §1

[12] = system: HT1080
Procedure, shortened: as §1

CC1(C)CC=C(c2nc(C3CC(C)(C)OC(C)(C)C3)ccc2NC(=O)c2nc(C#N)c[nH]2)CC1 [Edicotinib]
Conditions	relative viability
[1], 0.00017 µM	1.01
[1], 0.00051 µM	0.994
[1], 0.00152 µM	0.992
[1], 0.00457 µM	1
[1], 0.01372 µM	1.01
[1], 0.04115 µM	0.997
[1], 0.1235 µM	1.01
[1], 0.3704 µM	1.04
[1], 1.111 µM	1.06
[1], 3.333 µM	1.07
[1], 10 µM	1.08
[2], 0.00017 µM	1.04
[2], 0.00051 µM	1.05
[2], 0.00152 µM	1.04
[2], 0.00457 µM	1.06
[2], 0.01372 µM	1.03
[2], 0.04115 µM	0.98
[2], 0.1235 µM	0.977
[2], 0.3704 µM	1.03
[2], 1.111 µM	1.04
[2], 3.333 µM	1.05
[2], 10 µM	1.04
[3], 0.00017 µM	1.02
[3], 0.00051 µM	0.99
[3], 0.00152 µM	1
[3], 0.00457 µM	1.01
[3], 0.01372 µM	1.04
[3], 0.04115 µM	0.9919
[3], 0.1235 µM	1.02
[3], 0.3704 µM	1
[3], 1.111 µM	0.952
[3], 3.333 µM	0.989
[3], 10 µM	0.929
[4], 0.00017 µM	1.03
[4], 0.00051 µM	1.03
[4], 0.00152 µM	1.04
[4], 0.00457 µM	1.04
[4], 0.01372 µM	1.03
[4], 0.04115 µM	1.04
[4], 0.1235 µM	1.05
[4], 0.3704 µM	1.04
[4], 1.111 µM	1.05
[4], 3.333 µM	0.996
[4], 10 µM	0.974
[5], 0.00017 µM	1.01
[5], 0.00051 µM	1.02
[5], 0.00152 µM	1.04
[5], 0.00457 µM	1.04
[5], 0.01372 µM	1.07
[5], 0.04115 µM	1.05
[5], 0.1235 µM	0.995
[5], 0.3704 µM	0.997
[5], 1.111 µM	0.929
[5], 3.333 µM	1.04
[5], 10 µM	1.013
[6], 0.00017 µM	1.13
[6], 0.00051 µM	1.14
[6], 0.00152 µM	1.16
[6], 0.00457 µM	1.15
[6], 0.01372 µM	1.13
[6], 0.04115 µM	1.1
[6], 0.1235 µM	1.11
[6], 0.3704 µM	1.17
[6], 1.111 µM	1.24
[6], 3.333 µM	1.14
[6], 10 µM	1.16
[7], 0.00017 µM	1.05
[7], 0.00051 µM	1.04
[7], 0.00152 µM	1.07
[7], 0.00457 µM	1.07
[7], 0.01372 µM	1.08
[7], 0.04115 µM	1.064
[7], 0.1235 µM	1.05
[7], 0.3704 µM	1.066
[7], 1.111 µM	1.07
[7], 3.333 µM	1.07
[7], 10 µM	1.07
[8], 0.00017 µM	0.9975
[8], 0.00051 µM	1.01
[8], 0.00152 µM	1.02
[8], 0.00457 µM	1.02
[8], 0.01372 µM	1.01
[8], 0.04115 µM	0.999
[8], 0.1235 µM	1.021
[8], 0.3704 µM	1.01
[8], 1.111 µM	1.01
[8], 3.333 µM	0.987
[8], 10 µM	0.968
[9], 0.00017 µM	1.08
[9], 0.00051 µM	1.06
[9], 0.00152 µM	1.06
[9], 0.00457 µM	1.05
[9], 0.01372 µM	1.08
[9], 0.04115 µM	1.06
[9], 0.1235 µM	1.03
[9], 0.3704 µM	1.05
[9], 1.111 µM	1.04
[9], 3.333 µM	1.07
[9], 10 µM	1.08
[10], 0.00017 µM	1.04
[10], 0.00051 µM	1.06
[10], 0.00152 µM	1.04
[10], 0.00457 µM	1.01
[10], 0.01372 µM	1.04
[10], 0.04115 µM	1.06
[10], 0.1235 µM	1.04
[10], 0.3704 µM	1
[10], 1.111 µM	0.986
[10], 3.333 µM	0.958
[10], 10 µM	0.969
[11], 0.00017 µM	1
[11], 0.00051 µM	0.931
[11], 0.00152 µM	0.953
[11], 0.00457 µM	0.909
[11], 0.01372 µM	0.89
[11], 0.04115 µM	0.902
[11], 0.1235 µM	0.924
[11], 0.3704 µM	0.9
[11], 1.111 µM	0.894
[11], 3.333 µM	0.933
[11], 10 µM	0.999
[12], 0.00017 µM	1.03
[12], 0.00051 µM	1.07
[12], 0.00152 µM	1.03
[12], 0.00457 µM	1.041
[12], 0.01372 µM	1.04
[12], 0.04115 µM	1.03
[12], 0.1235 µM	1.037
[12], 0.3704 µM	1.021
[12], 1.111 µM	0.9787
[12], 3.333 µM	1.019
[12], 10 µM	0.993

Cc1ccc(Nc2nccc(N(C)c3ccc4c(C)n(C)nc4c3)n2)cc1S(N)(=O)=O [Pazopanib]
Conditions	relative viability
[1], 0.00017 µM	1
[1], 0.00051 µM	0.986
[1], 0.00152 µM	0.988
[1], 0.00457 µM	0.9911
[1], 0.01372 µM	0.989
[1], 0.04115 µM	0.934
[1], 0.1235 µM	0.9475
[1], 0.3704 µM	0.968
[1], 1.111 µM	0.984
[1], 3.333 µM	0.934
[1], 10 µM	0.694
[2], 0.00017 µM	1.04
[2], 0.00051 µM	1.05
[2], 0.00152 µM	1.07
[2], 0.00457 µM	1.05
[2], 0.01372 µM	1.06
[2], 0.04115 µM	1.07
[2], 0.1235 µM	1.08
[2], 0.3704 µM	1.12
[2], 1.111 µM	1.14
[2], 3.333 µM	1.12
[2], 10 µM	1.06
[3], 0.00017 µM	0.952
[3], 0.00051 µM	1.01
[3], 0.00152 µM	0.994
[3], 0.00457 µM	0.983
[3], 0.01372 µM	1
[3], 0.04115 µM	0.949
[3], 0.1235 µM	0.909
[3], 0.3704 µM	0.864
[3], 1.111 µM	0.857
[3], 3.333 µM	0.696
[3], 10 µM	0.449
[4], 0.00017 µM	1.04
[4], 0.00051 µM	1.05
[4], 0.00152 µM	1.038
[4], 0.00457 µM	1.02
[4], 0.01372 µM	1.02
[4], 0.04115 µM	1.06
[4], 0.1235 µM	1.03
[4], 0.3704 µM	1.01
[4], 1.111 µM	0.99
[4], 3.333 µM	0.968
[4], 10 µM	0.719
[5], 0.00017 µM	0.993
[5], 0.00051 µM	1
[5], 0.00152 µM	1.02
[5], 0.00457 µM	1.06
[5], 0.01372 µM	1.01
[5], 0.04115 µM	0.998
[5], 0.1235 µM	0.973
[5], 0.3704 µM	0.9626
[5], 1.111 µM	0.981
[5], 3.333 µM	0.935
[5], 10 µM	0.776
[6], 0.00017 µM	1.13
[6], 0.00051 µM	1.13
[6], 0.00152 µM	1.19
[6], 0.00457 µM	1.15
[6], 0.01372 µM	1.15
[6], 0.04115 µM	1.129
[6], 0.1235 µM	1.14
[6], 0.3704 µM	1.12
[6], 1.111 µM	1.16
[6], 3.333 µM	1.13
[6], 10 µM	0.878
[7], 0.00017 µM	1.04
[7], 0.00051 µM	1.01
[7], 0.00152 µM	1.03
[7], 0.00457 µM	1.03
[7], 0.01372 µM	1.05
[7], 0.04115 µM	1.05
[7], 0.1235 µM	1.03
[7], 0.3704 µM	1.04
[7], 1.111 µM	1.06
[7], 3.333 µM	1.016
[7], 10 µM	0.729
[8], 0.00017 µM	0.95
[8], 0.00051 µM	0.95
[8], 0.00152 µM	0.968
[8], 0.00457 µM	0.962
[8], 0.01372 µM	0.985
[8], 0.04115 µM	0.975
[8], 0.1235 µM	0.96
[8], 0.3704 µM	0.973
[8], 1.111 µM	1
[8], 3.333 µM	0.9311
[8], 10 µM	0.727
[9], 0.00017 µM	1.03
[9], 0.00051 µM	1.06
[9], 0.00152 µM	1.06
[9], 0.00457 µM	1.03
[9], 0.01372 µM	0.977
[9], 0.04115 µM	0.928
[9], 0.1235 µM	0.611
[9], 0.3704 µM	0.348
[9], 1.111 µM	0.342
[9], 3.333 µM	0.294
[9], 10 µM	0.243
[10], 0.00017 µM	1.02
[10], 0.00051 µM	1.001
[10], 0.00152 µM	1.02
[10], 0.00457 µM	1.03
[10], 0.01372 µM	1.02
[10], 0.04115 µM	1.02
[10], 0.1235 µM	1.02
[10], 0.3704 µM	1
[10], 1.111 µM	1.01
[10], 3.333 µM	0.916
[10], 10 µM	0.524
[11], 0.00017 µM	0.9
[11], 0.00051 µM	0.922
[11], 0.00152 µM	0.876
[11], 0.00457 µM	0.879
[11], 0.01372 µM	0.917
[11], 0.04115 µM	0.8727
[11], 0.1235 µM	0.843
[11], 0.3704 µM	0.793
[11], 1.111 µM	0.724
[11], 3.333 µM	0.7
[11], 10 µM	0.554
[12], 0.00017 µM	1.03
[12], 0.00051 µM	1.064
[12], 0.00152 µM	1.04
[12], 0.00457 µM	1.05
[12], 0.01372 µM	1.045
[12], 0.04115 µM	1.05
[12], 0.1235 µM	1.03
[12], 0.3704 µM	1.03
[12], 1.111 µM	1.05
[12], 3.333 µM	1.07
[12], 10 µM	1.07
